Assay results as given in publication PMC10706821, “Folate-Appended Hydroxypropyl-β-Cyclodextrin Induces Autophagic Cell Death in Acute Myeloid Leukemia Cells” (International Journal of Molecular Sciences, 2023).

Columns and labels:
HL-60 cells = test: AML xenograft survival model; type: in vivo, BALB/c Rag-2/JAK3 double-deficient (BRJ) mice; conditions: HL-60 xenograft, 20 days; for Median Survival Time: HP-β-CyD 2086.5 mg/kg i.p. twice a day, FA-HP-β-CyD 249 mg/kg i.p. twice a day, n = 6
Method: (§1) BALB/c Rag-2/JAK3 double-deficient (BRJ) mice were housed in a specific pathogen-free barrier facility and used for the xenograft transplantation experiments. All animal experiments were approved by the Institutional Review Board of Saga University and conducted in accordance with the institutional guidelines of animal care of Saga University.
(§2) HL-60 cells or THP-1 cells were injected intravenously into BRJ mice. After 72 h, mice were injected intraperitoneally with 200 μL of vehicle, FA-HP-β-CyD (15 mM, 249 mg/kg), or HP-β-CyD (150 mM, 2086.5 mg/kg) for 20 consecutive days, and survival was monitored daily. Ara-C (100 mg/kg) was injected intraperitoneally for 5 consecutive days from 72 h after transplantation. Venetoclax (25 mg/kg) was orally administered for 20 consecutive days from 72 h after transplantation. Chimerism of human leukemic cells in the BM was determined by flow cytometry after double staining with FITC-conjugated anti-human CD45 (BD Bioscience) and PE/Cy7-conjugated anti-mouse CD45 (BioLegend) antibodies. All surgery was performed under sodium pentobarbital anesthesia to minimize pain. Mice were euthanized with ether when they became moribund or were unable to obtain food or water, as recommended by Saga University institutional guidelines. Survival data were analyzed using a log-rank nonparametric test and presented as Kaplan–Meier survival curves (n = 6 for each group).

THP1 cells = test: AML xenograft survival model; type: in vivo, BALB/c Rag-2/JAK3 double-deficient (BRJ) mice; conditions: 20 days; for Median Survival Time: Figure 7B, HP-β-CyD 2086.5 mg/kg i.p. twice a day, FA-HP-β-CyD 249 mg/kg i.p. twice a day, Ara-C 100 mg/kg i.p., n = 6
Method: as §1, §2

SKM-1 = test: modified MTT assay (Cell Counting Kit-8), cell proliferation; type: cell-based, human
Method: (§3) The trypan blue dye exclusion method was used to evaluate cell viability. Cells (HL-60, THP1, SKM1 and Kasumi1 cells) were seeded in flat-bottomed 96-well plates at a density of 1 × 10^4 cells in 100 µL medium per well and incubated with FA-HP-β-CyD (0, 0,1, 0.25, 0.5, 0.75, 1 mM) or HP-β-CyD (0, 1, 2.5, 5, 10 mM) for 72 h. Then, viable cells were counted. Cell proliferation was evaluated by a modified MTT assay using Cell Counting Kit-8 (Dojindo Molecular Technologies, Kumamoto, Japan), as previously described. AML cells were cultured in 96-well plates at a density of 1 × 10^4 cells in 100 µL medium per well and incubated with FA-HP-β-CyD or HP-β-CyD for 72 h. The half-maximal inhibitory concentration values (IC50) were determined by non-linear regression using CalcuSyn software version 1.1.1 (Biosoft, Cambridge, UK), as previously described. After obtaining IC50 values for each agent, the antileukemic activity of FA-HP-β-CyD plus cytosine arabinoside (Ara-C) or Venetoclax was evaluated, as previously described. […] CalcuSyn was used to calculate the fraction affected (Fa, in which a value of 0.25 indicates […]) and the CI. This method is capable of quantifying synergistic (CI < 1) and antagonistic (CI > 1) effects at different dose and effect levels.

HL-60 [1] = test: as above; type: cell-based, human
Method: as §3

THP-1 = test: as above; type: cell-based, human
Method: as §3

[2] = system: normal human bone marrow CD34-positive progenitor cells; test: methylcellulose colony formation assay; conditions: 10 mM HP-β-CyD, 1 mM FA-HP-β-CyD, 1 week of culture
Source text: Human bone marrow CD34 positive cells were purchased from LONZA (Bazel, Switzerland). […] After 1 week of culture, the number of colonies was counted using an inverted microscope. Data represent the mean number of colonies ± SEM (n = 3).

AML cell lines [3] = test: Annexin V and PI staining, statements over all AML cell lines; type: cell-based, human; conditions: for apoptosis induction: four AML cell lines, 72 h
Method: PI and Annexin V (BD Biosciences, San Jose, CA, USA) staining was performed to assess apoptosis, as previously described [53]. Cells were filtered through nylon mesh and assessed using a FACSVerse flow cytometer (BD Biosciences). Data were analyzed using FlowJo software 10.8.2 (Tree Star, Inc., Ashland, OR, USA).

Kasumi1 = test: cell cycle analysis (PI, flow cytometry); type: cell-based, human; conditions: Kasumi1, 24 h
Method: (§4) Cell cycle analyses of AML cell lines (HL-60, THP1, SKM1, and Kasumi1 cells) were performed as described previously. In brief, 1 × 10^6 cells were treated with the indicated concentrations of CyDs. After 24 h of CyD treatment, cells were collected and fixed with 70% ethanol. Cells were then incubated at room temperature for 30 min with 0.1% Triton X-100/0.5% RNase A and stained with 50 μg/mL PI (BD Biosciences, San Jose, CA, USA). Cellular DNA content was analyzed by flow cytometry, and cell cycle profiles were determined in a FACS CantoII flow cytometer with CellQuest software (version 1.0.6, BD Biosciences).

THP1 [4] = test: cell cycle analysis (PI, flow cytometry); type: cell-based, human; conditions: THP1, 24 h
Method: as §4

HL-60 [5] = test: cell cycle analysis (PI, flow cytometry); type: cell-based, human; conditions: HL-60, 24 h
Method: as §4

SKM1 = test: cell cycle analysis (PI, flow cytometry); type: cell-based, human
Method: as §4

Kasumi-1 = test: modified MTT assay (Cell Counting Kit-8), cell proliferation; type: cell-based, human; conditions: Kasumi-1, 72 h
Method: (§5) The trypan blue dye exclusion method was used to evaluate cell viability. Cells (HL-60, THP1, SKM1 and Kasumi1 cells) were seeded in flat-bottomed 96-well plates at a density of 1 × 10^4 cells in 100 µL medium per well and incubated with FA-HP-β-CyD (0, 0,1, 0.25, 0.5, 0.75, 1 mM) or HP-β-CyD (0, 1, 2.5, 5, 10 mM) for 72 h. Then, viable cells were counted. Cell proliferation was evaluated by a modified MTT assay using Cell Counting Kit-8 (Dojindo Molecular Technologies, Kumamoto, Japan), as previously described. AML cells were cultured in 96-well plates at a density of 1 × 10^4 cells in 100 µL medium per well and incubated with FA-HP-β-CyD or HP-β-CyD for 72 h. […] This method is capable of quantifying synergistic (CI < 1) and antagonistic (CI > 1) effects at different dose and effect levels.

[6] = peripheral blood cell count after intraperitoneal administration; conditions: for Hb / Plt / WBC: seven repeat injections, Day 8
Method: (§8) At 24 h after the first injection, and at 8 days after the last of seven repeat injections, peripheral blood was collected from the tail vein and analyzed by an automated blood cell counter (Celltacα MEK-6500; NIHON KOHDEN, Tokyo, Japan). Data are presented as the mean ± SEM of three independent experiments.

AML cell lines [7] = test: trypan blue dye exclusion, cell viability; type: cell-based, human; conditions: 72 h; FA-HP-β-CyD up to 1 mM, HP-β-CyD up to 10 mM
Method: as §5

THP1 [8] = test: cell viability with autophagy inhibitors (Cell Counting Kit-8); type: cell-based, human; conditions: 1 mM FA-HP-β-CyD or 10 mM HP-β-CyD, chloroquine 20 μM, LY294002 50 μM, bafilomycin A1 1 nM
Method: (§6) HL-60 and THP1 cells (2 × 10^5 cells in 100 µL of RPMI-1640 medium per well) were seeded in flat-bottomed 96-well plates (Greiner Labortechnik, Hamburg, Germany) and treated with both 1 mM of FA-HP-β-CyD and 10 mM of HP-β-CyD at 37 °C for 2 h. The cells were then pretreated for 24 h with the autophagy inhibitors chloroquine (20 µM), LY294002 (50 μM; Fujifilm Wako Pure Chemicals Co., Ltd., Osaka, Japan), or bafilomycin A1 (1 nM; Funakoshi, Tokyo, Japan). Cell proliferation was assessed using Cell Counting Kit-8.

HL-60 [9] = test: as above; type: cell-based, human; conditions: 1 mM FA-HP-β-CyD or 10 mM HP-β-CyD, chloroquine 20 μM, LY294002 50 μM, bafilomycin A1 1 nM
Method: as §6

[10] = mouse, in vivo, ip
Method: as §8

THP1 [11] = test: autophagosome formation (DAPGreen); type: cell-based, human; conditions: THP1, 1 or 10 mM, 2 h
Method: (§7) Autophagosome formation was evaluated using the DAPGreen-Autophagy Detection Kit (Dojindo Molecular Technologies). HL-60 and THP1 cells were cultured overnight in 6-well plates at a density of 5 × 10^5 or 1 × 10^6 cells. The cells were then washed once with culture medium and incubated with DAPGreen working solution at 37 °C for 30 min. After the cells were washed twice, CyDs (1 mM, 10 mM) were added to the wells and incubated for 2 h. The samples were analyzed using a flow cytometer (FACS Canto II) or a fluorescence microscope (Carl Zeiss, Jena, Germany).

HL-60 [12] = test: autophagosome formation (DAPGreen); type: cell-based, human; conditions: HL-60, 1 or 10 mM, 2 h
Method: as §7

[13] = Figure 7A, Ara-C 100 mg/kg i.p.
[14] = Figure 7C, Venetoclax 25 mg/kg oral gavage daily

Compound	Median Survival Time (HL-60 cells; [13])	Median Survival Time (THP1 cells)	IC50 (SKM-1; Homo sapiens, SKM-1, SKM1)	IC50 (HL-60 [1]; Homo sapiens, HL-60)	IC50 (THP-1; Homo sapiens, THP-1, THP1)	Median Survival Time (HL-60 cells; [14])	apoptosis induction (AML cell lines [3])	effect on cell cycle status (Kasumi1)	effect on cell cycle status (THP1 [4])	effect on cell cycle status (HL-60 [5])	cell viability (trypan blue) (AML cell lines [7])	viability in the presence of autophagy inhibitors vs CyD alone (THP1 [8])	viability in the presence of autophagy inhibitors vs CyD alone (HL-60 [9])	also measured
Nc1ccn([C@@H]2O[C@H](CO)[C@@H](O)[C@@H]2O)c(=O)n1 [Ara-C, cytarabine]	34 days	45.5 days	0.6 µM	0.495 µM	7.19 µM	–	–	–	–	–	–	–	–	–
CC(O)COC[C@H]1O[C@@H]2O[C@H]3[C@H](O)[C@@H](O)[C@@H](O[C@H]4[C@H](O)[C@@H](O)[C@@H](O[C@H]5[C@H](O)[C@@H](O)[C@@H](O[C@H]6[C@H](O)[C@@H](O)[C@@H](O[C@H]7[C@H](O)[C@@H](O)[C@@H](O[C@H]8[C@H](O)[C@@H](O)[C@@H](O[C@H]1[C@H](O)[C@H]2O)O[C@@H]8COCC(C)O)O[C@@H]7COCC(C)O)O[C@@H]6COCC(C)O)O[C@@H]5COCC(C)O)O[C@@H]4COCC(C)O)O[C@@H]3COCC(C)O (stereo partly drawn) [HP-β-CyD, 2-Hydroxypropyl-β-cyclodextrin]	38 days	49.5 days	–	–	–	35 days	underwent apoptosis	dose-dependent increase in the percentage of cells in G2/M phase	dose-dependent increase in the percentage of cells in G2/M phase	dose-dependent increase in the percentage of cells in G2/M phase	reduced the cell viability of the AML cell lines in a dose-dependent manner	not affected by the presence or absence of autophagy inhibitors	not affected by the presence or absence of autophagy inhibitors	colony formation [2]: reduced colony numbers; IC50 (SKM-1; Homo sapiens, SKM-1, 72 h): 9440 µM; IC50 (HL-60 [1]; Homo sapiens, HL-60, 72 h): 7660 µM; IC50 (THP-1; Homo sapiens, THP-1, 72 h): 9050 µM; mode of cell death at high concentration (AML cell lines [3]; 15 mM HP-β-CyD): appeared to undergo necrosis; effect on cell cycle status (SKM1; SKM1, before and after exposure): no change in cell cycle; IC50 (Kasumi-1; Homo sapiens): 3140 µM; change in blood cell counts compared with vehicle (PBS) ([6]; 8 days after intraperitoneal injection, exception: higher dose of HP-β-CyD (10,000 mg/kg b.i.d.)): no significant change; Hb ([6]; HP-β-CyD 2000 mg/kg i.p.): 12.4 ± 0.67 g/dL; Plt ([6]; HP-β-CyD 2000 mg/kg i.p.): 64.5 ± 2.29 ×10^4/μL; WBC ([6]; HP-β-CyD 2000 mg/kg i.p.): 44.7 ± 12.65 ×10^2/μL; Hb ([6]; HP-β-CyD 6000 mg/kg i.p.): 14.3 ± 0.25 g/dL; Plt ([6]; HP-β-CyD 6000 mg/kg i.p.): 60.2 ± 10.69 ×10^4/μL; WBC ([6]; HP-β-CyD 6000 mg/kg i.p.): 50.0 ± 2.34 ×10^2/μL; Plt ([6]; HP-β-CyD 10,000 mg/kg i.p.): 75.5 ± 17.83 ×10^4/μL; WBC ([6]; HP-β-CyD 10,000 mg/kg i.p., p < 0.05): 30.5 ± 1.65 ×10^2/μL
CC1(C)CCC(CN2CCN(c3ccc(C(=O)NS(=O)(=O)c4ccc(NCC5CCOCC5)c([N+](=O)[O-])c4)c(Oc4cnc5[nH]ccc5c4)c3)CC2)=C(c2ccc(Cl)cc2)C1 [Venetoclax]	–	–	1.1 µM	0.0503 µM	0.442 µM	36 days	–	–	–	–	–	–	–	–
folate-conjugated HP-β-CyD [FA-HP-β-CyD]	38 days	50.5 days	–	–	–	35 days	triggered early apoptosis in four AML cell lines in a dose-dependent manner	no alteration in cell cycle status	no alteration in cell cycle status	no alteration in cell cycle status	reduced the cell viability of the AML cell lines in a dose-dependent manner	higher than that in the presence of FA-HP-β-CyD alone	higher than that in the presence of FA-HP-β-CyD alone	adverse effects on white blood cell counts, hemoglobin concentrations, platelet counts [10]: no adverse effects; survival compared with vehicle-injected mice (HL-60 cells; 249 mg/kg i.p. b.i.d.): survived significantly longer; survival compared with vehicle-injected mice (THP1 cells; 249 mg/kg i.p. b.i.d.): survived significantly longer; IC50 (SKM-1; SKM-1, 72 h): 200 µM; IC50 (HL-60 [1]; HL-60, 72 h): 620 µM; IC50 (THP-1; THP-1, 72 h): 320 µM; effect on cell cycle status (predicted, no experimental data) (SKM1; SKM1): no change in the cell cycle status was predicted; number of autophagic vacuoles (DAPGreen fluorescence) (THP1 [11]): increased; number of autophagic vacuoles (DAPGreen fluorescence) (HL-60 [12]): increased; IC50 (Kasumi-1): 300 µM
